The target in assay [1] is Vascular endothelial growth factor receptor 1 (Homo sapiens) (UniProt P17948). In words: Inhibition of wild-type human partial length FLT1 (R781 to F1239 residues) expressed in bacterial expression system at 1 uM by Kinomescan method relative to control.
For assay [2], the target named is SRSF protein kinase 2 (Homo sapiens) (UniProt P78362). In words: Inhibition of wild-type human full length SRPK2 (M1 to S686 residues) expressed in bacterial expression system at 1 uM by Kinomescan method relative to control.
SRSF protein kinase 2 (Homo sapiens), sequence (P78362 whole entry, looked up, the tested form may be a part): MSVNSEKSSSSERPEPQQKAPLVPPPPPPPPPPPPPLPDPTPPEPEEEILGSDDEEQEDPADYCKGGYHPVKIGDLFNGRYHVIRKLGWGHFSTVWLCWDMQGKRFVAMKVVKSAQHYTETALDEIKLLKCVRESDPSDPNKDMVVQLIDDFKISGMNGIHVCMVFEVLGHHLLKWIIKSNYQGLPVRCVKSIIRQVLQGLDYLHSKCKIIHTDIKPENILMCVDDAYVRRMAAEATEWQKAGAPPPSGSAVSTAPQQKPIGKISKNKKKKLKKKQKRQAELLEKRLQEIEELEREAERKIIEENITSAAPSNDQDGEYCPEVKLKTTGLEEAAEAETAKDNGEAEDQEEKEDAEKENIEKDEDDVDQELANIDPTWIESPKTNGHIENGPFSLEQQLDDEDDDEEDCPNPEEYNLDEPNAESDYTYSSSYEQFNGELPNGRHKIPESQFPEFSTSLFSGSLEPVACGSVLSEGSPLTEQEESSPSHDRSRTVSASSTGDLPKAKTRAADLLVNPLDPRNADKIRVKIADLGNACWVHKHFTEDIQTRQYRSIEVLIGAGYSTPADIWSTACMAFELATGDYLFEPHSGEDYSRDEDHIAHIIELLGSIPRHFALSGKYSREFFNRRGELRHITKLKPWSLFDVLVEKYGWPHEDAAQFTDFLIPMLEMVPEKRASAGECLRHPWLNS
Assay [3] deals with Serine/threonine-protein kinase Sgk1 (Homo sapiens) (UniProt O00141). The assay can be described thus: Inhibition of wild-type human partial length SGK (I60 to L431 residues) expressed in mammalian expression system at 1 uM by Kinomescan method relative to control.
Assay [4] deals with Activin receptor type-2A (Homo sapiens) (UniProt P27037). The assay can be described thus: Inhibition of wild-type human ACVR2A (V171 to T499 residues) expressed in bacterial expression system at 1 uM by Kinomescan method relative to control.
Assay [5] addresses Cyclin-dependent kinase 2 (Homo sapiens) (UniProt P24941). The assay can be described thus: Inhibition of wild-type human full length CDK2 (M1 to L298 residues) expressed in bacterial expression system at 1 uM by Kinomescan method relative to control.
Assay [6] deals with Dual specificity protein kinase CLK4 (Homo sapiens) (UniProt Q9HAZ1). The assay can be described thus: Inhibition of wild-type human partial length CLK4 (R135 to K481 residues) expressed in bacterial expression system at 1 uM by Kinomescan method relative to control.
The target in assay [7] is Insulin receptor-related protein (Homo sapiens) (UniProt P14616). The assay can be described thus: Inhibition of wild-type human partial length INSRR (R950 to E1278 residues) expressed in bacterial expression system at 1 uM by Kinomescan method relative to control.
For assay [8], the target named is Interferon-induced, double-stranded RNA-activated protein kinase (Homo sapiens) (UniProt P19525). In words: Inhibition of wild-type human partial length PRKR (F247 to C551 residues) expressed in bacterial expression system at 1 uM by Kinomescan method relative to control.
Assay [9] deals with Serine/threonine-protein kinase PAK 5 (Homo sapiens) (UniProt Q9P286). The assay can be described thus: Inhibition of wild-type human partial length PAK7 (Y400 to H719 residues) expressed in bacterial expression system at 1 uM by Kinomescan method relative to control.
The target of assay [10] is Phosphatidylinositol 4-kinase beta (Homo sapiens) (UniProt Q9UBF8). In words: Inhibition of wild-type human full length PIK4CB (M1 to M828 residues) expressed in mammalian expression system at 1 uM by Kinomescan method relative to control.
Phosphatidylinositol 4-kinase beta (Homo sapiens), sequence (Q9UBF8 2-816 limits assumed): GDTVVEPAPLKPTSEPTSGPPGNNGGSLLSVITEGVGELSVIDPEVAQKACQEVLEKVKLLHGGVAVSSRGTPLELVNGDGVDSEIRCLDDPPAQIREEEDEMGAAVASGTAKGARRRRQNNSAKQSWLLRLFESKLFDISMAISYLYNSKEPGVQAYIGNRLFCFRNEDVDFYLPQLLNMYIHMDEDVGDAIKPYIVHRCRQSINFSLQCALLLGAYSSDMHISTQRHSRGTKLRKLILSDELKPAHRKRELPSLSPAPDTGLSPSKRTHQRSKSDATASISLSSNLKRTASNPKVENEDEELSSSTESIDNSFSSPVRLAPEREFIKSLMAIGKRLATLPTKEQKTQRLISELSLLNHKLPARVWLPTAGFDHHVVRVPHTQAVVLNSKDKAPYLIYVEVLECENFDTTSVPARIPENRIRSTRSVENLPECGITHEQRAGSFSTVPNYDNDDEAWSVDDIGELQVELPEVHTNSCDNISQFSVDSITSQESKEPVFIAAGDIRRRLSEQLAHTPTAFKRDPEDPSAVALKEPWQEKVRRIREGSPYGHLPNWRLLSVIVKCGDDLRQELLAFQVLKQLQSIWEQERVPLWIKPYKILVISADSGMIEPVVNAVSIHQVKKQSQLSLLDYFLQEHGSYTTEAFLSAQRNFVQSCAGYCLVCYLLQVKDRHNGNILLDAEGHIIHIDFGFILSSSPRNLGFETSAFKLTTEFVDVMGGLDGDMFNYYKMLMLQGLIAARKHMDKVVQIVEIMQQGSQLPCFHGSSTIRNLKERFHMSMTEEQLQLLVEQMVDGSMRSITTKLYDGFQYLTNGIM
In assay [11] the target is Uncharacterized serine/threonine-protein kinase SBK3 (Homo sapiens) (UniProt P0C264). The assay can be described thus: Inhibition of wild-type human partial length SgK110 (L22 to R329 residues) expressed in bacterial expression system at 1 uM by Kinomescan method relative to control.
For assay [12], the target named is Myotonin-protein kinase (Homo sapiens) (UniProt Q09013). In words: Inhibition of wild-type human partial length DMPK (V47 to V415 residues) expressed in bacterial expression system at 1 uM by Kinomescan method relative to control.
Assay [13] has as its system Proto-oncogene tyrosine-protein kinase receptor Ret (Homo sapiens), P07949 [V804M]. In words: Inhibition of human partial length RET V804M mutant (E713 to D1014 residues) expressed in bacterial expression system at 1 uM by Kinomescan method relative to control.
In assay [14] the target is Cyclin-dependent kinase 19 (Homo sapiens) (UniProt Q9BWU1). In words: Inhibition of wild-type human partial length CDK11 (M1 to N360 residues) expressed in bacterial expression system at 1 uM by Kinomescan method relative to control.
Assay [15] deals with MAP kinase-interacting serine/threonine-protein kinase 1 (Homo sapiens) (UniProt Q9BUB5). In words: Inhibition of wild-type human full length MKNK1 (M1 to L424 residues) expressed in mammalian expression system at 10 uM by Kinomescan method relative to control.
The target of assay [16] is Mitogen-activated protein kinase 12 (Homo sapiens) (UniProt P53778). The assay can be described thus: Inhibition of wild-type human full length p38-gamma (M1 to L367 residues) expressed in mammalian expression system at 10 uM by Kinomescan method relative to control.
Assay [17] addresses Fibroblast growth factor receptor 2 (Homo sapiens) (UniProt P21802). In words: Inhibition of wild-type human partial length FGFR2 (D457 to E769 residues) expressed in bacterial expression system at 10 uM by Kinomescan method relative to control.
In assay [18] the target is Phosphatidylinositol 4,5-bisphosphate 3-kinase catalytic subunit alpha isoform (Homo sapiens) (UniProt P42336). In words: Inhibition of wild-type human partial length PIK3CA (R108 to N1068 residues) expressed in mammalian expression system at 10 uM by Kinomescan method relative to control.
Assay [19] concerns the target Tyrosine-protein kinase Srms (Homo sapiens) (UniProt Q9H3Y6). The assay can be described thus: Inhibition of wild-type human partial length SRMS (L208 to P488 residues) expressed in mammalian expression system at 10 uM by Kinomescan method relative to control.
Assay [20] concerns the target 5'-AMP-activated protein kinase catalytic subunit alpha-2 (Homo sapiens) (UniProt P54646). In words: Inhibition of wild-type human partial length AMPK alpha2 (M1 to E306 residues) expressed in bacterial expression system at 10 uM by Kinomescan method relative to control.
Assay [21] addresses Cytoplasmic tyrosine-protein kinase BMX (Homo sapiens) (UniProt P51813). The assay can be described thus: Inhibition of wild-type human full length BMX (M1 to H675 residues) expressed in bacterial expression system at 10 uM by Kinomescan method relative to control.
In assay [22] the target is Membrane-associated tyrosine- and threonine-specific cdc2-inhibitory kinase (Homo sapiens) (UniProt Q99640). In words: Inhibition of wild-type human partial length PKMYT1 (A88 to G366 residues) expressed in bacterial expression system at 10 uM by Kinomescan method relative to control.
In assay [23] the target is Ephrin type-A receptor 8 (Homo sapiens) (UniProt P29322). In words: Inhibition of wild-type human partial length EPHA8 (Q608 to C920 residues) expressed in bacterial expression system at 10 uM by Kinomescan method relative to control.
Ephrin type-A receptor 8 (Homo sapiens), sequence (P29322 whole entry, the tested form may be a part): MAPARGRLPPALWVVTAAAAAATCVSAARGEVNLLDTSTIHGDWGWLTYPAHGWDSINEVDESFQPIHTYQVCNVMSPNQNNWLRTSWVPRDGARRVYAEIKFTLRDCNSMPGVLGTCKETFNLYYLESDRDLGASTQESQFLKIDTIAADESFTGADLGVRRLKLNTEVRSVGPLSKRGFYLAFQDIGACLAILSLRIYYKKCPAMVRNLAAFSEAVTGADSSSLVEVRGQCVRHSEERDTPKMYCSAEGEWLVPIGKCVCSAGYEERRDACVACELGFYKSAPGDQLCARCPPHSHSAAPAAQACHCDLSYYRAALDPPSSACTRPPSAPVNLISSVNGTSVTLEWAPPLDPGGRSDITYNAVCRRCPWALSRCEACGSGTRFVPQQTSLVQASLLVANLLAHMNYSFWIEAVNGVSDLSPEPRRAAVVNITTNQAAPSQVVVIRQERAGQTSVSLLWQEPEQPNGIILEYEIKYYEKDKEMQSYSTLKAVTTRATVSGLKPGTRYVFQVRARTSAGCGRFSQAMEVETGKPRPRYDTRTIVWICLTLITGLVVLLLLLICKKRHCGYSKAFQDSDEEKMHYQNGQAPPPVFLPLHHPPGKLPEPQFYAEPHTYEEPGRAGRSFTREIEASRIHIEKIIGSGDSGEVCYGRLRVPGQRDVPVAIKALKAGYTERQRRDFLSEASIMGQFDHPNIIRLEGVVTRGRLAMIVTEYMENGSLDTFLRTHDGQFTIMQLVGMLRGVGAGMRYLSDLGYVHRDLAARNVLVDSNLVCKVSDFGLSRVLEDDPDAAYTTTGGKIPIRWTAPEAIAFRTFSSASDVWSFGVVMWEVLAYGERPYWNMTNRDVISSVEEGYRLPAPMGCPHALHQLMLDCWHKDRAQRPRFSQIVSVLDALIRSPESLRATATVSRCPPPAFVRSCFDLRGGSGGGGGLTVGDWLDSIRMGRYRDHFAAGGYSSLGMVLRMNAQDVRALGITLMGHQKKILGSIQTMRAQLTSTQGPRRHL
In assay [24] the test system is Hepatocyte growth factor receptor (Homo sapiens), P08581 [M1250T]. The assay can be described thus: Inhibition of human partial length MET M1250T mutant (D1010 to S1367 residues) expressed in bacterial expression system at 10 uM by Kinomescan method relative to control.
For assay [25], the target named is Vascular endothelial growth factor receptor 1 (Homo sapiens) (UniProt P17948). In words: Inhibition of wild-type human partial length FLT1 (R781 to F1239 residues) expressed in bacterial expression system at 10 uM by Kinomescan method relative to control.
The target in assay [26] is Protein kinase C theta type (Homo sapiens) (UniProt Q04759). In words: Inhibition of wild-type human partial length PRKCQ (L350 to S706 residues) expressed in bacterial expression system at 10 uM by Kinomescan method relative to control.
Assay [27] addresses Ribosomal protein S6 kinase alpha-3 (Homo sapiens) (UniProt P51812). In words: Inhibition of wild-type human partial length N-terminal RSK2 kinase domain 1 (M1 to D394 residues) expressed in mammalian expression system at 10 uM by Kinomescan method relative to control.

The structures appear in SMILES notation.

This note sets out measurements from ChEMBL document CHEMBL4387741, “Optimization of novel reversible Bruton's tyrosine kinase inhibitors identified using Tethering-fragment-based screens” (Bioorg Med Chem, 2019).

As a reminder, the inhibition is the relative decrease from the control value, in per cent. A lower inhibition goes with a weak effect.

Vascular endothelial growth factor receptor 1 (Homo sapiens), sequence (P17948 whole entry, the tested form may be a part): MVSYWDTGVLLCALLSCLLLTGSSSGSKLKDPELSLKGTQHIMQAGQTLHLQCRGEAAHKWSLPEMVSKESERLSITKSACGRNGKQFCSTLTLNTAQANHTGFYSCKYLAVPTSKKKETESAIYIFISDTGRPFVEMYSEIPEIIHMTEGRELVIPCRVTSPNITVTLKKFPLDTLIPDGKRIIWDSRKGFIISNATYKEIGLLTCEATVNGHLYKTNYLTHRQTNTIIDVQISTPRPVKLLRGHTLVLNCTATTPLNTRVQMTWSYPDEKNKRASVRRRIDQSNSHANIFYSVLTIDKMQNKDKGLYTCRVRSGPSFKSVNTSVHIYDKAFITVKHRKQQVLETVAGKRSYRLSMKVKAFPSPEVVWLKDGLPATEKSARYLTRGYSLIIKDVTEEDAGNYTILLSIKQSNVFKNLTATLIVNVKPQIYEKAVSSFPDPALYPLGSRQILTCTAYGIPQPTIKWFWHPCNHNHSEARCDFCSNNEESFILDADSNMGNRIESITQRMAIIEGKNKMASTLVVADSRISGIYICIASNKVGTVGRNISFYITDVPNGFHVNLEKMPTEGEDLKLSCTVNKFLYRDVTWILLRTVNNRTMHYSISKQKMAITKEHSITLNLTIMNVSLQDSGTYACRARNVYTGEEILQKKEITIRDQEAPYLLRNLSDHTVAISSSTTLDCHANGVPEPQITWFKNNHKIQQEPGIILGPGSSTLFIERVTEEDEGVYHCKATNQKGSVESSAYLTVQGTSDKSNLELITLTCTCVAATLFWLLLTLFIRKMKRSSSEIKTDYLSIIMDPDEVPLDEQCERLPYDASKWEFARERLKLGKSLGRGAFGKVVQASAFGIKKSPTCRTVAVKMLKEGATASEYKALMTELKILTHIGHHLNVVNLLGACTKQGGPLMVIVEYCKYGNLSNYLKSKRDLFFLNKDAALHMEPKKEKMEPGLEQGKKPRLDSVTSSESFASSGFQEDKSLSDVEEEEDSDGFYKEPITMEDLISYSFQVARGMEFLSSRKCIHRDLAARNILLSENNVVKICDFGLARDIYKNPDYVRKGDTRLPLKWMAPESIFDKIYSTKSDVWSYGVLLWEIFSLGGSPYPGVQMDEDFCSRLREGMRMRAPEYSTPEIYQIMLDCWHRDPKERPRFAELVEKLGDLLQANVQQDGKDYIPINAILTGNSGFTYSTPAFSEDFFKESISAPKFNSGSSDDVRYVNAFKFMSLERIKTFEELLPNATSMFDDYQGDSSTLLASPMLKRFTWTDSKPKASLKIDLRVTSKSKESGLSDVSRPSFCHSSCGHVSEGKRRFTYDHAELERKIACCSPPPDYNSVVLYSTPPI
Tyrosine-protein kinase Srms (Homo sapiens), sequence (Q9H3Y6 whole entry, the tested form may be a part): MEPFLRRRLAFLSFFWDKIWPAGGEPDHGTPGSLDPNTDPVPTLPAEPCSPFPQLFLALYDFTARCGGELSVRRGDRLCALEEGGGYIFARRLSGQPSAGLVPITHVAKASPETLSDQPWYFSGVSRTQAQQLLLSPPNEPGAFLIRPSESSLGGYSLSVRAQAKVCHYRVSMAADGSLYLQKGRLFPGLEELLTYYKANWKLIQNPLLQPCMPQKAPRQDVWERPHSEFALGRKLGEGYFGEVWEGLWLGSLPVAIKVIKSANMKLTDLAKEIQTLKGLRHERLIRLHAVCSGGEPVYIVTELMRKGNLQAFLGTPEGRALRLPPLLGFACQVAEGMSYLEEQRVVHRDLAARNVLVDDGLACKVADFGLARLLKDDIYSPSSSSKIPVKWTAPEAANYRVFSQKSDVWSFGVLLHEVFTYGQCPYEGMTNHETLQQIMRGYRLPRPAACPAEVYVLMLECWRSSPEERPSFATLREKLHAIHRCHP
Ribosomal protein S6 kinase alpha-3 (Homo sapiens), sequence (P51812 whole entry, the tested form may be a part): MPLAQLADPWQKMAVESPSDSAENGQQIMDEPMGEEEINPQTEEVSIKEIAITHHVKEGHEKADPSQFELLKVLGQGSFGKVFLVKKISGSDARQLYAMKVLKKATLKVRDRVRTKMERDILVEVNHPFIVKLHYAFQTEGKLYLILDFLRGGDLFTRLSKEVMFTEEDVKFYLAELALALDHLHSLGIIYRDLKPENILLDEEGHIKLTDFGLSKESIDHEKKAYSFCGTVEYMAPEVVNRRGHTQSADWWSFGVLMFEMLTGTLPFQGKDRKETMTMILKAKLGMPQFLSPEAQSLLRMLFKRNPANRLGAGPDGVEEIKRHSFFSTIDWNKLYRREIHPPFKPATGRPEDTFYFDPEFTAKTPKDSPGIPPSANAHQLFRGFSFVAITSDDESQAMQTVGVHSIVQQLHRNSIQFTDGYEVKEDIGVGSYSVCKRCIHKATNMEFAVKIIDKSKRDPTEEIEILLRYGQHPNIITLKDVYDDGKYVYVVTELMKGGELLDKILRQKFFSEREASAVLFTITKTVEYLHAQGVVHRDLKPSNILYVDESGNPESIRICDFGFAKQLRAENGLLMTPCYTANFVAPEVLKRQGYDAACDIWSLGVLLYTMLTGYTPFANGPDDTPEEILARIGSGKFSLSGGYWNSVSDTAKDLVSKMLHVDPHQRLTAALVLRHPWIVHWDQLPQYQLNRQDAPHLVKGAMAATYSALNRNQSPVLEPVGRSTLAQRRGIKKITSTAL

For `O=C(Nc1cccc([C@@H]2CN(c3ncnc4[nH]ccc34)CCN2CCO)c1)Nc1c(F)cccc1N1CCCC1`, the inhibition in [1] is 35%; in [2], 88%; in assay [3], 64%; in assay [4], 100%; in assay [5], 99%; in assay [6], 100%. In addition, the inhibition in [7] is 100%; in assay [8] it was 100%; in assay [9], 98%; in assay [10] it was 100%; in [11], 100%; in assay [12] it was 100%. The inhibition worked out at 0.95% in assay [13] and 100% in [14].

As for `O=C(Nc1cccc([C@H]2CCCN(c3ncnc4[nH]ccc34)C2)c1)Nc1ccccc1N1CCCC1`, the inhibition in assay [15] turned out to be 55%; in assay [16] it was 68%; in [17], 24%; in assay [18], 99%; in assay [19], 65%; in [20], 4.7%. Further, the inhibition in assay [21] was 43%; in [22], 71%; in assay [23], 40%; in assay [24], 97%; in assay [25] it was 2.2%; in assay [26] it was 100%. This compound returned an inhibition in assay [27] of 57%.
